Source: patent US10696692B2, “Amido-benzyl sulfone and sulfoxide derivates” (Forma TM, LLC, priority 2012, dated 2020)

Assays:
A2780 cells = experiment: Assay 2: In-Vitro Cell Proliferation Assay (A2780 cells, SRB readout, 72 hours); assay type: cell-based; conditions: Homo sapiens, A2780, 72 h, A2780 cells, 72 hours, SRB; read-out: Cell Proliferation (IC50);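 note: viable cells counted via sulforhodamine B staining, absorbance at 570 nm, after 72 h exposure at 37 °C, DMSO 0.1% as control, media-only background subtracted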
NAMPT = NAMPT (Homo sapiens (Human), UniProt P43490); experiment: Assay 1: Biochemical Inhibition Assay (NAMPT enzymatic reaction, NMN quantified by mass spectrometry); conditions: read-out: Biochemical (IC50);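 note: recombinant His-tagged human NAMPT preincubated with compound 15 min, then reacted 30 min at rt with 1 µM NAM, 100 µM PRPP, 2.5 mM ATP, NMN product read by RapidFire MS, normalized to L-Cystathionine internal standard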
Chain of NAMPT (P43490 whole entry): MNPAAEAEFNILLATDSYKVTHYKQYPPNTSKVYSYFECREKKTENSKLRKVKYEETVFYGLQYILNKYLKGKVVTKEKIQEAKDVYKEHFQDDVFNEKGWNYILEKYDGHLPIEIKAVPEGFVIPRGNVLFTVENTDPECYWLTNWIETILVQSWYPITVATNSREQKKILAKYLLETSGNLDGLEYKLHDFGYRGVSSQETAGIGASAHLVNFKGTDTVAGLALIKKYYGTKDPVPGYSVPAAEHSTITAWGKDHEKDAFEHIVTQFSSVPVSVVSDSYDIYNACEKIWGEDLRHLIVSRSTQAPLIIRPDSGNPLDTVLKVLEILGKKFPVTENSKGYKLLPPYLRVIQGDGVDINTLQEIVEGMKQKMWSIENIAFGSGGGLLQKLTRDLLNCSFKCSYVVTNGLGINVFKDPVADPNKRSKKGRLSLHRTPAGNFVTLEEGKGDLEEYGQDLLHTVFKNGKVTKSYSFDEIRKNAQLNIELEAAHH

| IC50 (A2780 cells) | IC50 (NAMPT) | Structure (SMILES) |
| --- | --- | --- |
| 121 nM | 4.1 nM | O=C(NCc1ccc(S(=O)(=O)C2CCN(C3COC3)CC2)cc1)c1cnc2nccn2c1 [Example 118, Imidazo[1,2-a]pyrimidine-6-carboxylic acid 4-(1-oxetan-3-yl-piperidine-4-sulfonyl)-benzylamide] |
| 352 nM | 4.4 nM | O=C(NCc1ccc(S(=O)(=O)N2CCN(C3COC3)CC2)cc1)c1cnc2nccn2c1 [Example 119, Imidazo[1,2-a]pyrimidine-6-carboxylic acid 4-(4-oxetan-3-yl-piperazine-1-sulfonyl)-benzylamide] |
| 1.5 nM | 4.3 nM | O=C(NCc1ccc(S(=O)(=O)C2CCN(C3COC3)CC2)cc1)c1cc2ccncc2s1 [Example 120, Thieno[2,3-c]pyridine-2-carboxylic acid 4-(1-oxetan-3-yl-piperidine-4-sulfonyl)-benzylamide] |
| 1.1 nM | 5.8 nM | CC(C)(C)OC(=O)N1CCC2(CC1)CCN(S(=O)(=O)c1ccc(CNC(=O)c3ccc4nccn4c3)cc1)CC2 [Example 121, 9-(4-{[(Imidazo[1,2-a]pyridine-6-carbonyl)-amino]-methyl}-benzenesulfonyl)-3,9-diaza-spiro[5.5]undecane-3-carboxylic acid tert-butyl ester] |
| 2.6 nM | 25.5 nM | CC(C)(C)OC(=O)N1CCCC2(CCN(S(=O)(=O)c3ccc(CNC(=O)c4ccc5nccn5c4)cc3)CC2)C1 [Example 122, 9-(4-{[(Imidazo[1,2-a]pyridine-6-carbonyl)-amino]-methyl}-benzenesulfonyl)-2,9-diaza-spiro[5.5]undecane-2-carboxylic acid tert-butyl ester] |
| 4.65 nM | 40.5 nM | CC(C)(C)OC(=O)N1CCC2(CC1)CN(S(=O)(=O)c1ccc(CNC(=O)c3ccc4nccn4c3)cc1)CCO2 [Example 124, 4-(4-{[(Imidazo[1,2-a]pyridine-6-carbonyl)-amino]-methyl}-benzenesulfonyl)-1-oxa-4,9-diaza-spiro[5.5]undecane-9-carboxylic acid tert-butyl ester] |
| 1.37 nM | 11.2 nM | CC(C)(C)OC(=O)N1CCCC12CCN(S(=O)(=O)c1ccc(CNC(=O)c3ccc4nccn4c3)cc1)CC2 [Example 125, 8-(4-{[(Imidazo[1,2-a]pyridine-6-carbonyl)-amino]-methyl}-benzenesulfonyl)-1,8-diaza-spiro[4.5]decane-1-carboxylic acid tert-butyl ester] |
| 2.77 nM | 14.5 nM | CC(C)(C)OC(=O)NC1CC2(CCN(S(=O)(=O)c3ccc(CNC(=O)c4ccc5nccn5c4)cc3)CC2)C1 [Example 127] |
| 8.75 nM | 34 nM | CC(C)(C)OC(=O)NCC12CC(CN1S(=O)(=O)c1ccc(CNC(=O)c3ccc4nccn4c3)cc1)C2 [Example 129, [2-(4-{[(Imidazo[1,2-a]pyridine-6-carbonyl)-amino]-methyl}-benzenesulfonyl)-2-aza-bicyclo[2.1.1]hex-1-ylmethyl]-carbamic acid tert-butyl ester] |
| 5.8 nM | 40.4 nM | CC(C)(C)OC(=O)N1CCC2(CCCN(S(=O)(=O)c3ccc(CNC(=O)c4ccc5nccn5c4)cc3)C2)CC1 [Example 131, 2-(4-{[(Imidazo[1,2-a]pyridine-6-carbonyl)-amino]-methyl}-benzenesulfonyl)-2,9-diaza-spiro[5.5]undecane-9-carboxylic acid tert-butyl ester] |
| 24.9 nM | 28.8 nM | O=C(NCc1ccc(S(=O)(=O)N2CC3COCC(C2)C3O)cc1)c1ccc2nccn2c1 (stereo not shown) [Example 138, Imidazo[1,2-a]pyridine-6-carboxylic acid 4-(9-hydroxy-3-oxa-7-aza-bicyclo[3.3.1]nonane-7-sulfonyl)-benzylamide] |
| 12.5 nM | 28.4 nM | CC1(O)CCN(S(=O)(=O)c2ccc(CNC(=O)c3ccc4nccn4c3)cc2)CC1 [Example 145, Imidazo[1,2-a]pyridine-6-carboxylic acid 4-(4-hydroxy-4-methyl-piperidine-1-sulfonyl)-benzylamide] |
| 3.1 nM | 12.7 nM | O=C(NCc1ccc(S(=O)(=O)N2CCC3OCCC3C2)cc1)c1ccc2nccn2c1 (stereo not shown) [Example 146, Imidazo[1,2-a]pyridine-6-carboxylic acid 4-(hexahydro-furo[3,2-c]pyridine-5-sulfonyl)-benzylamide] |
| 45.8 nM | 31.5 nM | O=C(NCc1ccc(S(=O)(=O)N2CCC[C@H](O)C2)cc1)c1cc2ccncc2o1 [Example 150, Furo[2,3-c]pyridine-2-carboxylic acid 4-((S)-3-hydroxy-piperidine-1-sulfonyl)-benzylamide] |
| 45 nM | 27.4 nM | O=C(NCc1ccc(S(=O)(=O)N2CCC[C@@H](O)C2)cc1)c1cc2ccncc2o1 [Example 151, Furo[2,3-c]pyridine-2-carboxylic acid 4-((R)-3-hydroxy-piperidine-1-sulfonyl)-benzylamide] |
| 30.5 nM | 32.1 nM | O=C(NCc1ccc(S(=O)(=O)N2CCC3(CCNC3)CC2)cc1)c1ccc2nccn2c1 [Example 152, Imidazo[1,2-a]pyridine-6-carboxylic acid 4-(2,8-diaza-spiro[4.5]decane-8-sulfonyl)-benzylamide] |

| IC50 (A2780 cells) | IC50 (NAMPT) | Structure (SMILES) |
| --- | --- | --- |
| 48.9 nM | 16.5 nM | O=C(NCc1ccc(S(=O)(=O)N2CC3COCC3C2)cc1)c1cc2ccncc2o1 (stereo not shown) [Example 153, Furo[2,3-c]pyridine-2-carboxylic acid 4-(tetrahydro-furo[3,4-c]pyrrole-5-sulfonyl)-benzylamide] |
| 14.9 nM | 17.9 nM | O=C(NCc1ccc(S(=O)(=O)N2CCC(N3CCCC3)CC2)cc1)c1cc2ccncc2o1 [Example 157, Furo[2,3-c]pyridine-2-carboxylic acid 4-(4-pyrrolidin-1-yl-piperidine-1-sulfonyl)-benzylamide] |
| 13.3 nM | 12 nM | O=C(NCc1ccc(S(=O)(=O)N2C[C@H]3C[C@@H]2C3)cc1)c1ccc2nccn2c1 [Example 159, Imidazo[1,2-a]pyridine-6-carboxylic acid 4-(2-aza-bicyclo[2.1.1]hexane-2-sulfonyl)-benzylamide] |
| 15.3 nM | 4.7 nM | O=C(NCc1ccc(S(=O)(=O)N2CC3CC3C2)cc1)c1ccc2nccn2c1 (stereo not shown) [Example 160, Imidazo[1,2-a]pyridine-6-carboxylic acid 4-(3-aza-bicyclo[3.1.0]hexane-3-sulfonyl)-benzylamide] |
| 11.9 nM | 30.4 nM | O=C(NCc1ccc(S(=O)(=O)N2CCN(C3CCOCC3)CC2)cc1)c1cc2ccncc2o1 [Example 170, Furo[2,3-c]pyridine-2-carboxylic acid 4-[4-(tetrahydro-pyran-4-yl)-piperazine-1-sulfonyl]-benzylamide] |
| 42.2 nM | 39.8 nM | CC(=O)N1CCC(S(=O)(=O)c2ccc(CNC(=O)c3ccc4nccn4c3)cc2)CC1 [Example 171, Imidazo[1,2-a]pyridine-6-carboxylic acid 4-(1-acetyl-piperidine-4-sulfonyl)-benzylamide] |
| 86.2 nM | 183 nM | COCCN1CCN(S(=O)(=O)c2ccc(CNC(=O)c3cnc4[nH]ncc4c3)cc2)CC1 [Example 173, 1H-Pyrazolo[3,4-b]pyridine-5-carboxylic acid 4-[4-(2-methoxy-ethyl)-piperazine-1-sulfonyl]-benzylamide] |
| 127 nM | 65.2 nM | O=C(NCc1ccc(S(=O)(=O)N2CCC(F)(F)C2)cc1)c1cnc2[nH]ncc2c1 [Example 175, 1H-Pyrazolo[3,4-b]pyridine-5-carboxylic acid 4-(3,3-difluoro-pyrrolidine-1-sulfonyl)-benzylamide] |
| 118 nM | 283 nM | CC(C)(C)OC(=O)N1CCC2(CCCN2S(=O)(=O)c2ccc(CNC(=O)c3ccc4nccn4c3)cc2)CC1 [Example 185, 1-(4-{[(Imidazo[1,2-a]pyridine-6-carbonyl)-amino]-methyl}-benzenesulfonyl)-1,8-diaza-spiro[4.5]decane-8-carboxylic acid tert-butyl ester] |
| 31.1 nM | 7.7 nM | CC(C)CN1CCC([S+]([O-])c2ccc(CNC(=O)c3cnc4nccn4c3)cc2)CC1 (stereo not shown) [Example 188, N-[[4-[(1-isobutyl-4-piperidyl)sulfinyl]phenyl]methyl]imidazo[1,2-a]pyrimidine-6-carboxamide] |
| 23 nM | 130 nM | CC(C)CN1CCC([S+]([O-])c2ccc(CNC(=O)c3cnc4[nH]ncc4c3)cc2)CC1 (stereo not shown) [Example 190, N-[[4-[(1-isobutyl-4-piperidyl)sulfinyl]phenyl]methyl]-1H-pyrazolo[3,4-b]pyridine-5-carboxamide] |
| 5.6 nM | 26.3 nM | CC(C)CN1CCC([S+]([O-])c2ccc(CNC(=O)c3cc4cnccc4[nH]3)cc2)CC1 (stereo not shown) [Example 191, N-[[4-[(1-isobutyl-4-piperidyl)sulfinyl]phenyl]methyl]-1H-pyrrolo[3,2-c]pyridine-2-carboxamide] |
| 16.8 nM | 2.83 nM | CN1CCC2(C1)CN(S(=O)(=O)c1ccc(CNC(=O)c3cc4ccncc4o3)cc1)C2 [Example 197, N-[[4-[(6-methyl-2,6-diazaspiro[3.4]octan-2-yl)sulfonyl]phenyl]methyl] furo[2,3-c]pyridine-2-carboxamide] |
| 452 nM | 308 nM | O=C(NCc1ccc(S(=O)(=O)C2CCOCC2)cc1)c1cnc2[nH]ncc2c1 [Example 198, N-[(4-tetrahydropyran-4-ylsulfonylphenyl)methyl]-1H-pyrazolo[3,4-b]pyridine-5-carboxamide] |
| 185 nM | 8.65 nM | O=C(NCc1ccc(S(=O)(=O)C2CCOCC2)cc1)c1cnc2nccn2c1 [Example 199, N-[(4-tetrahydropyran-4-ylsulfonylphenyl)methyl] imidazo[1,2-a]pyrimidine-6-carboxamide] |
| 14.2 nM | 34.5 nM | O=C(NCc1ccc(S(=O)(=O)C2CCOCC2)cc1)c1ccc2nccn2c1 [Example 200, N-[(4-tetrahydropyran-4-ylsulfonylphenyl)methyl] imidazo[1,2-a]pyridine-6-carboxamide] |
